{
  "source": "paper PMC7693676",
  "about": "“Suberitamides A–C, Aryl Alkaloids from a Pseudosuberites sp. Marine Sponge that Inhibit Cbl-b Ubiquitin Ligase Activity” (Marine Drugs, 2020)",
  "biological_target": "T1, Cbl-b (Homo sapiens, UniProt Q13191)",
  "T1 construct": "gene CBLB; N1/2 Construct; with E1 (UBE1) and E2 (UBC-H5) with ubiquitin in the assay",
  "T1 sequence (Q13191 whole entry)": "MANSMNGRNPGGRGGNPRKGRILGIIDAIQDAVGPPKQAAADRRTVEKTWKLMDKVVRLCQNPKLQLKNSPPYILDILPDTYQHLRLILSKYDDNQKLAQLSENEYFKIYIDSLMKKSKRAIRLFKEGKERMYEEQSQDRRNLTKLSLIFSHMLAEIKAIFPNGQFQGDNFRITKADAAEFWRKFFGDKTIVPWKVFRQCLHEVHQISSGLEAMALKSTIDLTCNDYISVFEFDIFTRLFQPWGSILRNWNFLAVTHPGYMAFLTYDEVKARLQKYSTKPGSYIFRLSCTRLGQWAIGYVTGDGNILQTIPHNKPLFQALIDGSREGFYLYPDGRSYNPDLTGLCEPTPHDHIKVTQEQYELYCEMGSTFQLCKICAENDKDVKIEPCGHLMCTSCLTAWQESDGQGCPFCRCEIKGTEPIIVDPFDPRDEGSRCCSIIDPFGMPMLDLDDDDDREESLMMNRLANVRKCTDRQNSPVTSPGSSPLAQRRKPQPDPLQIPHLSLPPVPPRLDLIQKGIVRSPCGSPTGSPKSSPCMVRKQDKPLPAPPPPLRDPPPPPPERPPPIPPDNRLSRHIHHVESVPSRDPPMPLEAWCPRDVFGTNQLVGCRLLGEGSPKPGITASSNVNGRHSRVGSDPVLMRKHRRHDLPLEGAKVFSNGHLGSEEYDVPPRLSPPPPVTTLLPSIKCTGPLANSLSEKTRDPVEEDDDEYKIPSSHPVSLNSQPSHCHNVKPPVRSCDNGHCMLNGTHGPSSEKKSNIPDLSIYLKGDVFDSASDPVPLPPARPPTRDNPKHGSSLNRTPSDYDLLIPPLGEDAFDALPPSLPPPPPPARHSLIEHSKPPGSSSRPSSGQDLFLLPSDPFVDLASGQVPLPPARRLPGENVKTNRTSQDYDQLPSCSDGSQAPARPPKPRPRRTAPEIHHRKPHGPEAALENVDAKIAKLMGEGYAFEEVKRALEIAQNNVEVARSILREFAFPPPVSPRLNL",
  "T1 sequence (P22314 2-1058 partner)": "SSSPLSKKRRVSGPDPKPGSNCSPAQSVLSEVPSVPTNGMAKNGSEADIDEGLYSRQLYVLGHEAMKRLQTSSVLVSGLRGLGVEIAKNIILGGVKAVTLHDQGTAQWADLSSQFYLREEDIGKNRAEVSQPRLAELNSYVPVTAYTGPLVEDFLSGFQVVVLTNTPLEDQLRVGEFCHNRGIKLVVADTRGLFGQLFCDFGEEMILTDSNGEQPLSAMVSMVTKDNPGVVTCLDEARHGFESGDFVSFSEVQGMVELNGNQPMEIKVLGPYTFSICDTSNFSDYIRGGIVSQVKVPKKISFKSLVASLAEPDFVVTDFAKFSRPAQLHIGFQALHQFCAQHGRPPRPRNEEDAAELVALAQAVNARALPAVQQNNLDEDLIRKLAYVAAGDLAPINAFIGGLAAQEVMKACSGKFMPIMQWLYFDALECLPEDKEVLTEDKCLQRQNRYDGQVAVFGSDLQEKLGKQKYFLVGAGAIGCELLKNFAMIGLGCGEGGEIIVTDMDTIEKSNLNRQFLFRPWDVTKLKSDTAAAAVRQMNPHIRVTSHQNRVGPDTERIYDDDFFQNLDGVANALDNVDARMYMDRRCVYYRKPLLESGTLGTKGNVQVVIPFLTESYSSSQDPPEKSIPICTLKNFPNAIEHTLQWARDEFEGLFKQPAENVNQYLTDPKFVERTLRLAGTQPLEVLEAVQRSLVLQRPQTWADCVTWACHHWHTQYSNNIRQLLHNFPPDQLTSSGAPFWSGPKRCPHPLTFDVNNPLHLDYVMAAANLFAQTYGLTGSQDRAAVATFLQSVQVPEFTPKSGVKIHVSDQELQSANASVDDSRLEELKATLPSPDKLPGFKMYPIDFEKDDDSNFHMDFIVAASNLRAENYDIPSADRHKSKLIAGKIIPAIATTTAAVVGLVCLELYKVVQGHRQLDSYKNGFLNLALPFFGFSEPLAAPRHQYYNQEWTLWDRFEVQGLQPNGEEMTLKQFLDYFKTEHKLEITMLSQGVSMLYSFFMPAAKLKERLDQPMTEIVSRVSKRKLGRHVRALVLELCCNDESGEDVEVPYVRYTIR",
  "test": "in vitro Cbl-b autoubiquitination assay (UBA-coated plate, biotin-ubiquitin/avidin-HRP fluorescence), dose response",
  "assay_type": "biochemical",
  "data": [
    {"smiles": "O=C(N/C=C/c1ccc(O)cc1)c1c(-c2ccc(O)c(O)c2)c(-c2ccc(O)c(O)c2)c(C(=O)N/C=C/c2ccc(O)cc2)n1CCc1ccc(O)cc1", "note": "[compound 2, suberitamide B]", "values": [
      {"measurement": "IC50", "result": "~11", "unit": "µM"}
    ]},
    {"smiles": "CO[C@@]1(C(=O)N/C=C/c2ccc(O)cc2)O[C@](O)(C(=O)N/C=C/c2ccc(O)cc2)[C@@H](c2ccc(O)c(O)c2)[C@@H]1c1ccc(O)c(O)c1", "note": "[compound 1, suberitamide A]", "values": [
      {"measurement": "IC50", "result": "~11", "unit": "µM"}
    ]}
  ]
}
